Measurements reported in US10351575B2, “Bicyclic urea, thiourea, guanidine and cyanoguanidine compounds useful for the treatment of pain” (Array BioPharma Inc., priority 2012, dated 2019).

How the values were obtained:
Assay in all cases: KinaseProfiler off-target kinase profiling
Format in all cases: biochemical
Conditions in all cases: 10 μM, ATP near Km
[1] = target: AKT2 (Homo sapiens (Human), UniProt P31751)
Experimental: (§1) Representative compounds (Examples 12, 32, 26 and 2) of the invention were tested for off-target kinase activity at a concentration of 10 μM by Millipore, Inc. in their KinaseProfiler™ service against all the kinases available in their full kinase panel. Compounds were run in duplicate at a concentration of ATP near the Km for each individual kinase according to Millipore's specifications. The results are shown in Table B. Data are reported as percent of control (POC) and are the average of the two replicates.

[2] = target: AURKA (Homo sapiens (Human), UniProt O14965)
Experimental: as §1

[3] = target: BrSK1 (Homo sapiens (Human), UniProt Q8TDC3)
Experimental: as §1

[4] = target: CAMK2g (Homo sapiens (Human), UniProt Q13555)
Experimental: as §1

[5] = target: CK1delta (Homo sapiens (Human), UniProt P48730)
Chain of CK1delta (P48730 whole entry): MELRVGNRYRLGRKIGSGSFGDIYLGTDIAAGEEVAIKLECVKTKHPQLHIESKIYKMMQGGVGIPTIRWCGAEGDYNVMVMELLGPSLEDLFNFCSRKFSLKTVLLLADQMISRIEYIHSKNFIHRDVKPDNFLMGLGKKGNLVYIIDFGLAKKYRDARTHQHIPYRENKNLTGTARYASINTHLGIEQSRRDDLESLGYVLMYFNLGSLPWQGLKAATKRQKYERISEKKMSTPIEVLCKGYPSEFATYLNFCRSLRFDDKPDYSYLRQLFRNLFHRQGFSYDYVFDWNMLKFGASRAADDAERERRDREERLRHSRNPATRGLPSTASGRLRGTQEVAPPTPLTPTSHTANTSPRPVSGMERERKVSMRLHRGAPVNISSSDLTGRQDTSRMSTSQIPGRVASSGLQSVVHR
Experimental: as §1

[6] = target: CLK2 (Homo sapiens (Human), UniProt P49760)
Experimental: as §1

[7] = target: ERK2 (Homo sapiens (Human), UniProt P28482)
Experimental: as §1

[8] = target: EphA3 (Homo sapiens (Human), UniProt P29320)
Experimental: as §1

[9] = target: EphA7 (Homo sapiens (Human), UniProt Q15375)
Chain of EphA7 (Q15375 28-998): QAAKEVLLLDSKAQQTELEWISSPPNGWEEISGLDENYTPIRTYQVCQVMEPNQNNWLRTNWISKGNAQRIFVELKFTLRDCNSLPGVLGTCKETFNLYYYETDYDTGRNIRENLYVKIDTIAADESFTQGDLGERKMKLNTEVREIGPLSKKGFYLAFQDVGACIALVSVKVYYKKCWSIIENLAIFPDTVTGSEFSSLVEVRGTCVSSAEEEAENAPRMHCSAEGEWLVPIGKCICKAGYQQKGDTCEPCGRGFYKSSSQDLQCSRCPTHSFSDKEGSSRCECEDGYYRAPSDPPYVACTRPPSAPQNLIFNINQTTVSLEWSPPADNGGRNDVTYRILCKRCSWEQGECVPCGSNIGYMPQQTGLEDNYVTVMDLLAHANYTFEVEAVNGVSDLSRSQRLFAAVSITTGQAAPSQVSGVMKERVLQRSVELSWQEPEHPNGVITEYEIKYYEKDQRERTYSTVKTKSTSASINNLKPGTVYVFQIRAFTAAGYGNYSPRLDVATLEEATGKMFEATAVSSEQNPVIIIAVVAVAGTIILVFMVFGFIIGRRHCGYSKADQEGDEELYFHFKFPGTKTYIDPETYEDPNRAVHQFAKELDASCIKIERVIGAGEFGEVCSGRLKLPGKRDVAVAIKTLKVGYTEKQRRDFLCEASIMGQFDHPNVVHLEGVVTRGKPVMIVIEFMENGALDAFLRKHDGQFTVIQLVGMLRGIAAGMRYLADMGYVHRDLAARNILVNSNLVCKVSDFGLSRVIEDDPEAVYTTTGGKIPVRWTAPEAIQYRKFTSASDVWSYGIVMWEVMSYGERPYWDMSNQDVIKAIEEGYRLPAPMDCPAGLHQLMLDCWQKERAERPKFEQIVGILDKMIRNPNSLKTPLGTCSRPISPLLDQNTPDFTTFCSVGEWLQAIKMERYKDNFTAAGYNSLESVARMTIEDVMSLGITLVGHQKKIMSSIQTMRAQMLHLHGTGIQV
Experimental: as §1

[10] = target: EphB2 (Homo sapiens (Human), UniProt P29323)
Chain of EphB2 (P29323 19-1055): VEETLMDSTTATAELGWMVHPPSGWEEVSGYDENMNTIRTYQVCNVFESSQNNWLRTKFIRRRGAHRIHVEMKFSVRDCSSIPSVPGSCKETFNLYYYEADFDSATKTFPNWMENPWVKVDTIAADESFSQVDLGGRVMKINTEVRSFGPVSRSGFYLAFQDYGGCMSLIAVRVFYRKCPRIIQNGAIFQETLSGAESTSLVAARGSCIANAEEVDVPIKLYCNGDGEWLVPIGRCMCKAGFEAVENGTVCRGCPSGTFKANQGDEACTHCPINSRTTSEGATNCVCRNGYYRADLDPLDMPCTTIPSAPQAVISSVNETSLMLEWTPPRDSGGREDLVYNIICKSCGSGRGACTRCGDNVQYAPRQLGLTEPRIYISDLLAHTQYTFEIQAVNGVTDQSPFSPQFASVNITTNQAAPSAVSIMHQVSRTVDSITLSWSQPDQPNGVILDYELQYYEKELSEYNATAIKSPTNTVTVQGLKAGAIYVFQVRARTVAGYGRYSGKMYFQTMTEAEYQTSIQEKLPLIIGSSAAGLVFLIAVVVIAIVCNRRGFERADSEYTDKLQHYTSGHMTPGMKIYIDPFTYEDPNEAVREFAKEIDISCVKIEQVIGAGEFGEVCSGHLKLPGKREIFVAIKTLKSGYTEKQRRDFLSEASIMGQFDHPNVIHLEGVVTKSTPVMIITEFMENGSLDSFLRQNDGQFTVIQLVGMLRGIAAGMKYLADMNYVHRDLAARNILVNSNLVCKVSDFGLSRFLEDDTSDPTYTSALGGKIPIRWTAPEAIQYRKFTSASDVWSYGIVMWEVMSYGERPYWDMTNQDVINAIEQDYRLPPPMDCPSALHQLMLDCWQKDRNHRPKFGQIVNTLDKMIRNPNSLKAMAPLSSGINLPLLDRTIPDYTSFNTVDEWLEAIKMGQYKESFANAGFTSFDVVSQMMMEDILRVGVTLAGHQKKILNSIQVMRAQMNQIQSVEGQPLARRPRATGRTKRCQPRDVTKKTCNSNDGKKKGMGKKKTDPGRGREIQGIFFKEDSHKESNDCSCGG
Experimental: as §1

[11] = target: Fer (Homo sapiens (Human), UniProt P16591)
Experimental: as §1

[12] = target: Flt3 (Homo sapiens (Human), UniProt P36888)
Chain of Flt3 (P36888 27-993): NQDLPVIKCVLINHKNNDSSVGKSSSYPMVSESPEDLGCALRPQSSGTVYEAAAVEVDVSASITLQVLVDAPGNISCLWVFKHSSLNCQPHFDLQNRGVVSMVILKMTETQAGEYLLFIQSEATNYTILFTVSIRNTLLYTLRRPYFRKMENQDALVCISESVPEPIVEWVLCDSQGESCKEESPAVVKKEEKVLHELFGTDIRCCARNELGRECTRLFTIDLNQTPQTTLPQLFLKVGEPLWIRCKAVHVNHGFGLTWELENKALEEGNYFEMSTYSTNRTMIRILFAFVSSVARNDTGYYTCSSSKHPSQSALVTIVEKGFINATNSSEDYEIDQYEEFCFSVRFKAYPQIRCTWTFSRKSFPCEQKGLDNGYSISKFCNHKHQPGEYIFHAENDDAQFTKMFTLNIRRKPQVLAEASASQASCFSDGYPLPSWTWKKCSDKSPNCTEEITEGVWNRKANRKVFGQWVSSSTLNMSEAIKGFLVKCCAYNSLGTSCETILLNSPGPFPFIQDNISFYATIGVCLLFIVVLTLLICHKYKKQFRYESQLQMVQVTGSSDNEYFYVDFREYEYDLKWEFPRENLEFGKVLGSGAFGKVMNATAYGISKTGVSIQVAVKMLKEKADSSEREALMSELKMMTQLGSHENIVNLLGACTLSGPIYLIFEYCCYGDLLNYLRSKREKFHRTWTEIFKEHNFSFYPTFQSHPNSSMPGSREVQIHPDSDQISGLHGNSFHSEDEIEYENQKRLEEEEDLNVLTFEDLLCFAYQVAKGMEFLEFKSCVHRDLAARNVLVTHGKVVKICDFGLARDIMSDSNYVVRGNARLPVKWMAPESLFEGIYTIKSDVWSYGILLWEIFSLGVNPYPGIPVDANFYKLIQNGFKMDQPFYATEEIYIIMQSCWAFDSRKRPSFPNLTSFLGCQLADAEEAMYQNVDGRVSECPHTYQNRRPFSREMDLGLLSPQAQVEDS
Experimental: as §1

[13] = target: Flt4 (Homo sapiens (Human), UniProt P35916)
Chain of Flt4 (P35916 25-1363): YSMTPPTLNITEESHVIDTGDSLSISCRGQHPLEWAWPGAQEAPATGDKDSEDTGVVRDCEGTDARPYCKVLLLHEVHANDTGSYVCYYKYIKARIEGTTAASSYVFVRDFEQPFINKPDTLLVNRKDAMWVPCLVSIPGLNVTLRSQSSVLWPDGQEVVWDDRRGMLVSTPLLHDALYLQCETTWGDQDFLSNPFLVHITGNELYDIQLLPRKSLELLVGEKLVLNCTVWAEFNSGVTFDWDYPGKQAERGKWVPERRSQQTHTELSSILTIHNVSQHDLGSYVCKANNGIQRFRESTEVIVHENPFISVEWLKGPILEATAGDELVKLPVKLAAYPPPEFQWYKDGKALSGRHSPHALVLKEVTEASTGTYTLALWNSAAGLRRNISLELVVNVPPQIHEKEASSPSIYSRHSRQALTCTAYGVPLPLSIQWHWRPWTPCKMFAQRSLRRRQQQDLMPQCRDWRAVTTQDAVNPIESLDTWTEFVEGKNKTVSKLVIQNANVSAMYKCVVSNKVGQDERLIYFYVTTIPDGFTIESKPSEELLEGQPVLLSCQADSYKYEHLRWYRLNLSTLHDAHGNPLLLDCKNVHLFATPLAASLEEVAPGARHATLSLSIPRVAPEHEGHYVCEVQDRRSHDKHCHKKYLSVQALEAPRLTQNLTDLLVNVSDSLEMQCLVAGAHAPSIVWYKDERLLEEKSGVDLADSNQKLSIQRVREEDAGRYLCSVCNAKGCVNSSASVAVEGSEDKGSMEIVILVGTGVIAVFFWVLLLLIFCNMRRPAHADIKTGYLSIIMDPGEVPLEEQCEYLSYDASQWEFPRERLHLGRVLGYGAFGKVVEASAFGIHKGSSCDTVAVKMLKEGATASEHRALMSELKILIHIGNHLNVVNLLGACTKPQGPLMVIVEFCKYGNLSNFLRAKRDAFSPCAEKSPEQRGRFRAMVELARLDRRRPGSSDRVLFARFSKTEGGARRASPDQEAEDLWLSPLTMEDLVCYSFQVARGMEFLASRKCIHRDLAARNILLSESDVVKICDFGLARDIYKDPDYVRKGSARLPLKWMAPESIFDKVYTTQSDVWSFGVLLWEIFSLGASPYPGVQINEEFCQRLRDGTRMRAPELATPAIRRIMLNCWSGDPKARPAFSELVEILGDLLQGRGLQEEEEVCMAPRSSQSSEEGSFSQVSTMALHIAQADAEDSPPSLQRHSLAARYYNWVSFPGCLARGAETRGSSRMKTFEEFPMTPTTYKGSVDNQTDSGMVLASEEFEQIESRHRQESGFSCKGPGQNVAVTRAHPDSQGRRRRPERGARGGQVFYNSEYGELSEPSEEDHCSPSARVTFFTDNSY
Experimental: as §1

[14] = target: GSK3beta (Homo sapiens (Human), UniProt P49841)
Experimental: as §1

[15] = target: IKKbeta (Homo sapiens (Human), UniProt O14920)
Experimental: as §1

[16] = target: IR Activated (Homo sapiens (Human), UniProt P06213)
Chain of IR Activated (P06213 1005-1310 limits assumed): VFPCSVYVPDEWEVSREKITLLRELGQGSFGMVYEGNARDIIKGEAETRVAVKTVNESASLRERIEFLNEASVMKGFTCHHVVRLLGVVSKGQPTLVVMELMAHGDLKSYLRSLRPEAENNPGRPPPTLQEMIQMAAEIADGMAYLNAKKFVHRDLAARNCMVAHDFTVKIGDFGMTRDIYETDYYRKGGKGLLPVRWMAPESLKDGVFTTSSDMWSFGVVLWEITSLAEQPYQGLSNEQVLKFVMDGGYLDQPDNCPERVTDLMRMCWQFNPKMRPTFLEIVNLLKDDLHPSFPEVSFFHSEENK
Experimental: as §1

[17] = target: IRR (Homo sapiens (Human), UniProt P14616)
Experimental: as §1

[18] = target: JAK2 (Homo sapiens (Human), UniProt O60674)
Experimental: as §1

[19] = target: MAP4K2 (Homo sapiens (Human), UniProt Q12851)
Experimental: as §1

[20] = target: MAPKAP-K5 (Homo sapiens (Human), UniProt Q8IW41)
Experimental: as §1

[21] = target: MARK2 (Homo sapiens (Human), UniProt Q7KZI7)
Experimental: as §1

[22] = target: MEK1 (Homo sapiens (Human), UniProt Q02750)
Experimental: as §1

[23] = target: MKNK2 (Homo sapiens (Human), UniProt Q9HBH9)
Experimental: as §1

[24] = target: MST1 (Homo sapiens (Human), UniProt Q13043)
Experimental: as §1

[25] = target: NEK11 (Homo sapiens (Human), UniProt Q8NG66)
Experimental: as §1

[26] = target: PAK5 (Homo sapiens (Human), UniProt Q9P286)
Experimental: as §1

[27] = target: PAK6 (Homo sapiens (Human), UniProt Q9NQU5)
Experimental: as §1

[28] = target: PDGFRalpha (Homo sapiens (Human), UniProt P16234)
Experimental: as §1

[29] = target: PDGFRbeta (Homo sapiens (Human), UniProt P09619)
Experimental: as §1

[30] = target: Pim-1 (Homo sapiens (Human), UniProt P11309)
Experimental: as §1

[31] = target: Plk1 (Homo sapiens (Human), UniProt P53350)
Experimental: as §1

[32] = target: Rsk3 (Homo sapiens (Human), UniProt Q15349)
Experimental: as §1

[33] = target: SIK (Homo sapiens (Human), UniProt P57059)
Experimental: as §1

[34] = target: SRPK2 (Homo sapiens (Human), UniProt P78362)
Experimental: as §1

[35] = target: TAO1 (Homo sapiens (Human), UniProt Q7L7X3)
Experimental: as §1

[36] = target: TEC Activated (Homo sapiens (Human), UniProt P42680)
Experimental: as §1

[37] = target: WNK3 (Homo sapiens (Human), UniProt Q9BYP7)
Experimental: as §1

[38] = target: p38beta (Homo sapiens (Human), UniProt Q15759)
Experimental: as §1

[39] = target: p70S6K (Homo sapiens (Human), UniProt P23443)
Experimental: as §1

[40] = test system: CK1_y
Experimental: as §1

Structure (SMILES): Cc1c(-c2ccc(=O)n(C)c2)nn(-c2ccccc2)c1NC(=O)NC1CN(CC(F)(F)F)Cc2ccccc21 (stereo not shown) [Example 26, 1-(4-methyl-3-(1-methyl-6-oxo-1,6-dihydropyridin-3-yl)-1-phenyl-1H-pyrazol-5-yl)-3-(2-(2,2,2-trifluoroethyl)-1,2,3,4-tetrahydroisoquinolin-4-yl)urea]
- Avg. POC [1]: 130 POC
- Avg. POC [2]: 107.5 POC
- Avg. POC [3]: 105.5 POC
- Avg. POC [4]: 101 POC
- Avg. POC [5]: 121.5 POC
- Avg. POC [6]: 108.5 POC
- Avg. POC [7]: 107.5 POC
- Avg. POC [8]: 128 POC
- Avg. POC [9]: 108 POC
- Avg. POC [10]: 109.5 POC
- Avg. POC [11]: 98 POC
- Avg. POC [12]: 97.5 POC
- Avg. POC [13]: 106 POC
- Avg. POC [14]: 124.5 POC
- Avg. POC [15]: 103.5 POC
- Avg. POC [16]: 106 POC
- Avg. POC [17]: 89 POC
- Avg. POC [18]: 134.5 POC
- Avg. POC [19]: 121 POC
- Avg. POC [20]: 101.5 POC
- Avg. POC [21]: 102.5 POC
- Avg. POC [22]: 97 POC
- Avg. POC [23]: 99.5 POC
- Avg. POC [24]: 102 POC
- Avg. POC [25]: 113.5 POC
- Avg. POC [26]: 121.5 POC
- Avg. POC [27]: 116.5 POC
- Avg. POC [28]: 104.5 POC
- Avg. POC [29]: 122.5 POC
- Avg. POC [30]: 97.5 POC
- Avg. POC [31]: 108 POC
- Avg. POC [32]: 76.5 POC
- Avg. POC [33]: 121.5 POC
- Avg. POC [34]: 106 POC
- Avg. POC [35]: 105.5 POC
- Avg. POC [36]: 113.5 POC
- Avg. POC [37]: 103.5 POC
- Avg. POC [38]: 115.5 POC
- Avg. POC [39]: 116 POC

Structure (SMILES): COCc1ccc2c(c1)C(NC(=O)Nc1c(C)c(-c3cnn(C)c3)nn1-c1ccccc1)COC2 (stereo not shown) [Example 32, 1-(1′,4-dimethyl-1-phenyl-1H,1′H-[3,4′-bipyrazol]-5-yl)-3-(6-(methoxymethyl)isochroman-4-yl)urea]
- Avg. POC [1]: 121 POC
- Avg. POC [2]: 112.5 POC
- Avg. POC [3]: 114.5 POC
- Avg. POC [4]: 105 POC
- Avg. POC [40]: 107.5 POC
- Avg. POC [5]: 135.5 POC
- Avg. POC [6]: 105.5 POC
- Avg. POC [7]: 128.5 POC
- Avg. POC [8]: 122 POC
- Avg. POC [9]: 100.5 POC
- Avg. POC [10]: 96.5 POC
- Avg. POC [11]: 85 POC
- Avg. POC [12]: 115 POC
- Avg. POC [13]: 98 POC
- Avg. POC [14]: 84.5 POC
- Avg. POC [15]: 105.5 POC
- Avg. POC [16]: 111.5 POC
- Avg. POC [17]: 109.5 POC
- Avg. POC [18]: 122.5 POC
- Avg. POC [19]: 119.5 POC
- Avg. POC [20]: 108 POC
- Avg. POC [21]: 107.5 POC
- Avg. POC [22]: 102 POC
- Avg. POC [23]: 99.5 POC
- Avg. POC [24]: 105.5 POC
- Avg. POC [25]: 108 POC
- Avg. POC [26]: 111 POC
- Avg. POC [27]: 116.5 POC
- Avg. POC [28]: 112.5 POC
- Avg. POC [29]: 131.5 POC
- Avg. POC [30]: 109 POC
- Avg. POC [31]: 108 POC
- Avg. POC [32]: 92 POC
- Avg. POC [33]: 97 POC
- Avg. POC [34]: 106.5 POC
- Avg. POC [35]: 100 POC
- Avg. POC [36]: 108.5 POC
- Avg. POC [37]: 103.5 POC
- Avg. POC [38]: 119 POC
- Avg. POC [39]: 110.5 POC
